Test results from patent US10517867B2, “Posaconazole derivative, pharmaceutical composition and use thereof” (priority 2016, dated 2019).
Where two headings read alike, the source gives them in different places.

Columns and labels:
[1] = Determination of solubility in deionized water (HPLC, external standard); settings: 25 °C, water, thermodynamic from solid
[2] = In vitro metabolic stability in rat plasma; format: in vitro ADME; settings: rat, plasma, 37° C., 10 μM compound, read-out: Rat plasma T1/2
Description: (§1) This example detects the metabolic stability of the compounds of the present disclosure in human (rat) plasma and intestinal S9 in vitro. In a human (rat) plasma reaction system, 990 μl of human (rat) plasma was taken and incubated at 37° C. for 5 minutes, and 10 μl of the compound mother liquor was used to initiate the reaction. In the human (rat) intestinal S9 stability experiment, in the order shown in Table 2 below, the samples were added and incubated in a 37° C. water bath to initiate the reaction, each sample performed in triplicates. Respectively, at 1 minute, 2 minutes, 5 minutes, 15 minutes, 30 minutes after the reaction began, 100 μL of each was taken and added to a centrifuge tube containing 400 μL of 0° C. precooled internal standard working solution. The reaction was terminated, vortexed and mixed for 1 minute, centrifuged at 10000×g for 10 minutes in a 4° C. precooled high-speed centrifuge, and the supernatant was detected with HPLC. The test results were used to calculate metabolic half-life using WinNonlin (version 6.2 Pharsight, Mountain View, Calif.) with a non-compartmental model.
(§2) Compound stock solution concentration: 1 mM
(§3) Reaction matrix: human (rat) plasma, intestinal S9 purchased from Research Institute for Liver Diseases (Shanghai) Co., Ltd.

[3] = Solid stability test (stability chamber, HPLC total impurity); format: physicochemical
[4] = In vitro metabolic stability in human plasma; format: in vitro ADME; settings: human, plasma, 37° C., 10 μM compound, read-out: Human plasma T1/2
Description: as §1, §2, §3

[5] = In vitro metabolic stability in human intestine S9; format: in vitro ADME; settings: human, 37° C., 10 μM compound, 1 mg/mL S9, NADPH regeneration system, read-out: Human intestine S9 T1/2
Description: as §1, §2, §3

[6] = tested on: Candida albicans ATCC10231; experiment: Systemic fungal infection in mice, intragastric administration; format: in vivo, ICR mice; settings: Candida albicans, ATCC10231, po
Description: (§4) ICR mice, weighing 18-22 g, male, provided by Hubei Experimental Animal Center.
Prior to the experiment, a small amount of Candida albicans was picked from an SDA medium kept at 4° C. with an inoculation loop and inoculated into 1 ml YPD culture medium, cultured at 30° C. with 200 rpm shaking and activated for 16 hours, so that the fungus was in the late stage of exponential growth. Counted with a hemocytometer and the fungal solution concentration was adjusted to 1×10^3 to 5×10^3 CFU/ml with RPMI1640 medium. Monoclonal Candida albicans on SDA plate was picked up, inoculated into 1 ml YPD (Yeast Extract Peptone Dextrose Medium, the same below) culture medium, cultured at 35° C., 200 rpm for 16 hours until late exponential growth phase. Candida albicans was inoculated into fresh medium for culturing for 6 hours at 1%, centrifuged at 1000×g for 5 minutes, washed with physiological saline three times until the supernatant was colorless, counted with a hemocytometer, and the cell concentration was adjusted to 5×10^6 cells/ml. A tail vein injection of 0.1 ml/10 g caused a systemic fungal infection in mice. […] A total of 7 days of observations were performed. All dead mice were burned with ethanol.

[7] = In vitro metabolic stability in rat intestine S9; format: in vitro ADME; settings: rat, 37° C., 10 μM compound, 1 mg/mL S9, NADPH regeneration system, read-out: Rat intestine S9 T1/2
Description: as §1, §2, §3

[8] = tested on: Candida albicans ATCC10231; experiment: Systemic fungal infection in mice, intravenous administration; format: in vivo, ICR mice
Description: as §4
Prior to the experiment, a small amount of Candida albicans was picked from an SDA (sacharomyces agar, the same below) medium kept at 4° C. with an inoculation loop and inoculated into 1 ml YPD (Yeast Extract Peptone Dextrose Medium) culture medium, cultured at 30° C. with 200 rpm shaking and activated for 16 hours, so that the fungus was in the late stage of exponential growth. Counted with a hemocytometer and the fungal solution concentration was adjusted to 1×10^3-5×10^3 CFU/ml with RPMI1640 medium (Roswell Park Memorial Institute 1640, the same below). Monoclonal Candida albicans on SDA plate was picked up, inoculated into 1 ml YPD (Yeast Extract Peptone Dextrose Medium, the same below) culture medium, cultured at 35° C., 200 rpm for 16 hours until late exponential growth phase. Candida albicans was inoculated into fresh medium for culturing for 6 hours at 1%, centrifuged at 1000×g for 5 minutes, washed with physiological saline three times until the supernatant was colorless, counted with a hemocytometer, and the cell concentration was adjusted to 5×10^6 cells/ml. A tail vein injection of 0.1 ml/10 g caused a systemic fungal infection in mice. […] A total of 7 days of observations were performed. All dead mice were burned with ethanol.

[9] = 24 h, read-out: survival rate of mice, day 1, 20 mg/kg intragastric once daily for 5 days, day 1
[10] = 48 h, read-out: survival rate of mice, day 2, 20 mg/kg intragastric once daily for 5 days, day 2
[11] = 72 h, read-out: survival rate of mice, day 3, 20 mg/kg intragastric once daily for 5 days, day 3
[12] = 96 h, read-out: survival rate of mice, day 4, 20 mg/kg intragastric once daily for 5 days, day 4
[13] = 120 h, read-out: survival rate of mice, day 5, 20 mg/kg intragastric once daily for 5 days, day 5
[14] = 144 h, read-out: survival rate of mice, day 6, 20 mg/kg intragastric once daily for 5 days, day 6
[15] = 168 h, read-out: survival rate of mice, day 7, 20 mg/kg intragastric once daily for 5 days, day 7
[16] = 24 h, 20 mg/kg intragastric once daily for 5 days, day 1, read-out: survival rate of mice, day 1
[17] = 48 h, 20 mg/kg intragastric once daily for 5 days, day 2, read-out: survival rate of mice, day 2
[18] = 72 h, 20 mg/kg intragastric once daily for 5 days, day 3, read-out: survival rate of mice, day 3
[19] = 96 h, 20 mg/kg intragastric once daily for 5 days, day 4, read-out: survival rate of mice, day 4
[20] = 120 h, 20 mg/kg intragastric once daily for 5 days, day 5, read-out: survival rate of mice, day 5
[21] = 144 h, 20 mg/kg intragastric once daily for 5 days, day 6, read-out: survival rate of mice, day 6
[22] = 168 h, 20 mg/kg intragastric once daily for 5 days, day 7, read-out: survival rate of mice, day 7
[23] = 24 h, read-out: survival rate of mice, day 1
[24] = 48 h, read-out: survival rate of mice, day 2
[25] = 72 h, read-out: survival rate of mice, day 3
[26] = 96 h, read-out: survival rate of mice, day 4
[27] = 120 h, read-out: survival rate of mice, day 5
[28] = 144 h, read-out: survival rate of mice, day 6
[29] = 168 h, read-out: survival rate of mice, day 7

Row | Structure (SMILES) | solubility at 30 min [1] [mg/mL] | half-life at 10 µM [2] [min] | Total impurity increment in 30 days [3] [%] | half-life at 10 µM [4] [min] | half-life at 10 µM ([5]; intestinal S9) [min] | responders at 20 mg/kg [6, 9] [%] | responders at 20 mg/kg [6, 10] [%] | responders at 20 mg/kg [6, 11] [%] | responders at 20 mg/kg [6, 12] [%] | responders at 20 mg/kg [6, 13] [%] | responders at 20 mg/kg [6, 14] [%] | responders at 20 mg/kg [6, 15] [%] | half-life at 10 µM ([7]; intestinal S9, pH 7.4) [min] | half-life at 10 µM [5] [min] | half-life at 10 µM ([7]; pH 7.4) [min] | also measured
1 | CC[C@@H]([C@H](C)O)n1ncn(-c2ccc(N3CCN(c4ccc(OC[C@@H]5CO[C@@](Cn6c[n+](C(C)OC(=O)N(C)c7ncccc7COC(=O)[C@@H](N)CCC(N)=O)cn6)(c6ccc(F)cc6F)C5)cc4)CC3)cc2)c1=O (stereo partly shown) [ST0022] | > 50 | 1.12 ± 0.45 | 0.48 | 1.39 ± 0.52 | 17.7 ± 4.52 | 100 | 100 | 100 | 90 | 80 | 80 | 70 | 19 ± 5.36 |  |  | 
2 | CC[C@@H]([C@H](C)O)n1ncn(-c2ccc(N3CCN(c4ccc(OC[C@@H]5CO[C@@](Cn6c[n+](C(C)OC(=O)N(C)c7ncccc7COC(=O)CN(C)C)cn6)(c6ccc(F)cc6F)C5)cc4)CC3)cc2)c1=O (stereo partly shown) [ST0045] | > 50 | 11.9 ± 2.96 | 1.68 | 15.2 ± 3.99 | 33.2 ± 4.23 |  |  |  |  |  |  |  | 26 ± 5.69 |  |  | 
3 | CC[C@@H]([C@H](C)OC(=O)OC(C)OC(=O)CNC)n1ncn(-c2ccc(N3CCN(c4ccc(OC[C@@H]5CO[C@@](Cn6cncn6)(c6ccc(F)cc6F)C5)cc4)CC3)cc2)c1=O.Cl (stereo partly shown) [ST0053] |  | 21.2 ± 4.52 |  | 19.9 ± 3.01 | 50.2 ± 5.15 |  |  |  |  |  |  |  | 48.2 ± 6.85 |  |  | Total impurity increment in 30 days ([3]; solid, packaged, 25° C.±2° C., relative humidity 60%±2%): 0.85%; responders at 20 mg/kg [6, 16]: 90%; responders at 20 mg/kg [6, 17]: 80%; responders at 20 mg/kg [6, 18]: 70%; responders at 20 mg/kg [6, 19]: 60%; responders at 20 mg/kg [6, 20]: 60%; responders at 20 mg/kg [6, 21]: 60%; responders at 20 mg/kg [6, 22]: 60%
4 | CC[C@@H](C(C)OC(=O)OCOC(=O)CCCCCCOP(=O)([O-])[O-])n1ncn(-c2ccc(N3CCN(c4ccc(OC[C@@H]5CO[C@@](Cn6cncn6)(c6ccc(F)cc6F)C5)cc4)CC3)cc2)c1=O.[Na+].[Na+] (stereo partly shown) [ST0074] | > 50 | 1.26 ± 0.54 |  | 0.86 ± 0.07 |  | 100 | 100 | 90 | 80 | 80 | 80 | 70 |  | 20 ± 4.66 | 18.2 ± 5.66 | responders at 20 mg/kg [8, 23]: 100%; responders at 20 mg/kg [8, 24]: 100%; responders at 20 mg/kg [8, 25]: 90%; responders at 20 mg/kg [8, 26]: 90%; responders at 20 mg/kg [8, 27]: 90%; responders at 20 mg/kg [8, 28]: 90%; responders at 20 mg/kg [8, 29]: 90%
5 | CC[C@@H]([C@H](C)OC(=O)OCOC(=O)CCCCCOP(=O)([O-])[O-])n1ncn(-c2ccc(N3CCN(c4ccc(OC[C@@H]5CO[C@@](Cn6cncn6)(c6ccc(F)cc6F)C5)cc4)CC3)cc2)c1=O.[Na+].[Na+] [ST0073] | > 50 | 0.75 ± 0.23 |  | 0.92 ± 0.11 |  | 100 | 90 | 80 | 80 | 80 | 70 | 70 |  | 16.2 ± 6.08 | 16 ± 8.96 | responders at 20 mg/kg [8, 23]: 100%; responders at 20 mg/kg [8, 24]: 100%; responders at 20 mg/kg [8, 25]: 100%; responders at 20 mg/kg [8, 26]: 100%; responders at 20 mg/kg [8, 27]: 90%; responders at 20 mg/kg [8, 28]: 90%; responders at 20 mg/kg [8, 29]: 90%
6 | CC[C@@H](C(C)OC(=O)OC(C)OC(=O)CCCOS(=O)(=O)[O-])n1ncn(-c2ccc(N3CCN(c4ccc(OC[C@@H]5CO[C@@](Cn6cncn6)(c6ccc(F)cc6F)C5)cc4)CC3)cc2)c1=O.[Na+] (stereo partly shown) [ST0077] | > 50 | 1.55 ± 0.56 |  | 1.97 ± 1.29 |  |  |  |  |  |  |  |  |  | 21.3 ± 5.09 | 19.3 ± 5.65 | responders at 20 mg/kg ([8]; 24 h, 20 mg/kg tail vein once daily for 5 days, day 1, read-out: survival rate of mice, day 1): 100%; responders at 20 mg/kg ([8]; 48 h, 20 mg/kg tail vein once daily for 5 days, day 2, read-out: survival rate of mice, day 2): 100%; responders at 20 mg/kg ([8]; 72 h, 20 mg/kg tail vein once daily for 5 days, day 3, read-out: survival rate of mice, day 3): 100%; responders at 20 mg/kg ([8]; 96 h, 20 mg/kg tail vein once daily for 5 days, day 4, read-out: survival rate of mice, day 4): 100%; responders at 20 mg/kg ([8]; 120 h, 20 mg/kg tail vein once daily for 5 days, day 5, read-out: survival rate of mice, day 5): 90%; responders at 20 mg/kg ([8]; 144 h, 20 mg/kg tail vein once daily for 5 days, day 6, read-out: survival rate of mice, day 6): 90%; responders at 20 mg/kg ([8]; 168 h, 20 mg/kg tail vein once daily for 5 days, day 7, read-out: survival rate of mice, day 7): 90%; responders at 20 mg/kg [6, 16]: 100%; responders at 20 mg/kg [6, 17]: 90%; responders at 20 mg/kg [6, 18]: 80%; responders at 20 mg/kg [6, 19]: 80%; responders at 20 mg/kg [6, 20]: 80%; responders at 20 mg/kg [6, 21]: 70%; responders at 20 mg/kg [6, 22]: 70%
7 | CC[C@@H]([C@H](C)O)n1ncn(-c2ccc(N3CCN(c4ccc(OC[C@@H]5CO[C@@](Cn6c[n+](C(C)OC(=O)N(C)c7ncccc7COC(=O)[C@@H](N)Cc7ccc(O)cc7)cn6)(c6ccc(F)cc6F)C5)cc4)CC3)cc2)c1=O (stereo partly shown) [ST0027] | > 50 | 15.9 ± 7.85 | 0.75 | 20.4 ± 3.65 | 45.9 ± 8.12 |  |  |  |  |  |  |  | 39.5 ± 6.69 |  |  | 
